# Key:
# [1] = test system: human cervical cancer ME180 (EGFR positive, Her2 negative); assay: In vivo antitumor effects, ME180 xenograft in nude mice; conditions: Balb/c nude mice, final day
# Description: (§1) Cultured human cancer cells suspended in PBS were implanted subcutaneously in the back of female Balb/c nude mice (Balb/cAJcl-nu mouse, CLEA Japan Inc., 5-week-old when received) at 5×10^6/100 μl. When about 7 days later and the average volume of the implanted tumors almost reached 100 mm^3, the mice were allotted by 4 mice per group such that the average tumor volume of each group became equal.
# (§2) For the tumor volume, the longer diameter and the shorter diameter were measured with calipers and calculated as [(shorter diameter)^2×(longer diameter/2)]=tumor volume [mm^3]. A pharmaceutical agent was administered by oral gavage once a day for 14 consecutively days from the day of allottment, and the pharmaceutical agent was not administered to the mice of the control group. The relative tumor growth rate was calculated based on the tumor volume on the administration start day for the pharmaceutical agent treatment group against the control group as rate 1. The antitumor effects are shown in % control. The % control was calculated by the following formula. % control=[(average relative tumor growth rate of pharmaceutical agent treatment group on the final day-1)/(average relative tumor growth rate of control group on the final day-1)]×100
# [2] = test system: human lung cancer NCI-H520 (both EGFR, Her2 negative); assay: In vivo antitumor effects, NCI-H520 xenograft in nude mice; conditions: Balb/c nude mice, final day
# Description: as §1, §2
# erbB3 = conditions: MDA-MB-453 cells stimulated with Heregulin, literature; cited from earlier work
# [3] = test system: human pancreatic cancer HPAC (both EGFR, Her2 positive); assay: In vivo antitumor effects, HPAC xenograft in nude mice; conditions: Balb/c nude mice, final day
# Description: as §1, §2
# [4] = test system: human rectal cancer LS174T (EGFR negative, Her2 positive); assay: In vivo antitumor effects, LS174T xenograft in nude mice; conditions: Balb/c nude mice, final day
# Description: as §1, §2
# [5] = test system: EGFR overexpression cancer A431; conditions: EGFR overexpression cancer A431, literature; cited from earlier work
# [6] = 10 mg/kg oral once a day for 14 days
# [7] = 30 mg/kg oral once a day for 14 days
Structure (SMILES),"% control [1, 6]","% control [1, 7]","% control [2, 6]","% control [2, 7]",inhibition of tyrosine phosphorylation of erbB3 (erbB3),"% control [3, 6]","% control [3, 7]","% control [4, 6]","% control [4, 7]",in vivo antitumor effect [5]
C=CC(=O)Nc1cc2c(Nc3ccc(F)c(Cl)c3)ncnc2cc1OCCCN1CCOCC1 [PD.2HCl],25 % control,17 % control,95 % control,87 % control,inhibit tyrosine phosphorylation,–,–,–,–,–
"C=CC(=O)Nc1cc2c(Nc3ccc(F)c(Cl)c3)ncnc2cc1OCCCN1CCOCC1 [PD, N-[4-(3-chloro-4-fluorophenyl)amino-7-[3-(4-morpholinyl)propoxy]quinazolin-6-yl]acrylamide]",–,–,–,–,–,39 % control,11 % control,56 % control,34 % control,shows an in vivo antitumor effect

# Reference: US20050148607A1, “Preventives and/or remedies for subjects with the expression or activation of her2 and/or egfr” (priority 2002, published 2005)
